Source: patent US10744201B2, “Method for treating rheumatoid arthritis with a human IL-6 receptor antibody and methotrexate” (Chugai Seiyaku Kabushiki Kaisha, priority 2003, dated 2020)

Tests used:
[1] = system: patients with active rheumatoid arthritis; experiment: Phase II trial: reduction of swollen joint count; format: in vivo, human
Description: (§1) The efficacy, safety and tolerability of MRA were assessed.
Reduction of Swollen Joint Count (Table 2)
The mean swollen joint count was similar across all the treatment groups at baseline.

[2] = system: patients with active rheumatoid arthritis; experiment: Phase II trial of MRA alone and with methotrexate: ACR 20/50/70 improvement rates; format: in vivo, human; details: for ACR 20 / ACR 50 / ACR 70: 16 weeks
Description: as §1
Study design: a double-blind, randomized, parallel group study by central randomization method
ACR improvement criteria: The cases where among the following 7 items, the number of swelling joints and the number of pain joints are improved by 20% or more and improvement by 20% or more is observed in three out of the remaining five items are determined as 20% or more improvement in ACR criteria. Further, 50% and 70% improvement cases indicate the patient cases where the above 20% improved parts are improved by 50% and 70%, respectively.
(1) Number of swelling joints
(2) Number of tender joints
(3) Pain assessment by a patient
(4) Global assessment of disease activity by a patient
(5) Global disease activity by a physician
(6) Assessment of physical function by a patient

[3] = system: patients with active rheumatoid arthritis; experiment: Phase II trial: development of anti-MRA antibodies; format: in vivo, human; details: 8 mg/kg treatment groups
Description: as §1
The development of anti-MRA antibodies was examined. None occurred at the 8 mg/kg treatment groups (monotherapy or combination with MTX). At 2 or 4 mg/kg treatment groups, the number of incidents was less in groups in combination with MTX than MRA monotherapy groups.

[4] = system: patients with active rheumatoid arthritis; experiment: Phase II trial: safety (adverse events, laboratory data, infusion reaction); details: for serious adverse events of which causal relationship could not be denied: hypersensitivity: no combination with MTX, after the 3rd or 4th MRA administration
Description: Subjects: Patients with rheumatoid arthritis diagnosed based on the 1987 disease classification of the American College of Rheumatology (ACR), of at least 6 months duration were enrolled.
Dosage and Administration: Seven groups: 0 mg/kg (placebo)+MTX, 2 mg/kg MRA+MTX, 4 mg/kg MRA+MTX, 8 mg/kg MRA+MTX, 2 mg/kg MRA+MTX placebo, 4 mg/kg MRA+MTX placebo, and 8 mg/kg MRA+MTX placebo. MRA or placebo administration is given by intravenous infusion, at 4-week intervals. MTX or MTX placebo administration is given orally, once weekly, at 10-25 mg/week.
Study Method: The assigned dose was administered by intravenous infusion, four times in total at 4-week intervals, and efficacy and safety were evaluated at 2-week intervals up to 16 weeks, and follow-up observation was done at 20 weeks. The primary endpoint for efficacy was the rate of ACR 20 at 16 weeks (4 weeks after the last dose). Secondary endpoints included rates of ACR 50 and ACR 70 at 16 weeks (4 weeks after the last dose).
Among 359 enrolled patients, the safety evaluation sets, the full analysis sets, and PPS (per protocol set) were 359, 354, and 307, respectively.
An infusion reaction was defined as an adverse event occurring within 24 hours of study drug administration.

[5] = 0 mg/kg (placebo)+MTX 10-25 mg/week oral (control group)
[6] = 2 mg/kg MRA i.v. at 4-week intervals x4, with MTX or MTX placebo 10-25 mg/week oral
[7] = 4 mg/kg MRA i.v. at 4-week intervals x4, with MTX or MTX placebo 10-25 mg/week oral
[8] = 8 mg/kg MRA i.v. at 4-week intervals x4, with MTX or MTX placebo 10-25 mg/week oral

CN(Cc1cnc2nc(N)nc(N)c2n1)c1ccc(C(=O)N[C@@H](CCC(=O)O)C(=O)O)cc1 [MTX, methotrexate]
Swollen joint count, Change from Baseline, Mean ± SD ([1]; MTX alone (MRA placebo), Week 16): −5.7 ± 6.1
ACR 20 [2, 5]: 40.8%
ACR 50 [2, 5]: 28.6%
ACR 70 [2, 5]: 16.3%

MRA: recombinant humanised anti-human interleukin-6 receptor monoclonal antibody of the IgG1 sub-class that inhibits the function of IL-6
development of anti-MRA antibodies [3]: None
Swollen joint count, Change from Baseline, Mean ± SD ([1]; 2 mg/kg MRA, with MTX or MTX placebo, Week 16): −4.5 ± 5.7
Swollen joint count, Change from Baseline, Mean ± SD ([1]; 4 mg/kg MRA, with MTX or MTX placebo, Week 16): −5.8 ± 4.1
Swollen joint count, mean difference (95% CI) to the MTX group ([1]; 8 mg/kg MRA group vs MTX group, Week 16): −2.31 (−4.07, −0.55)
Swollen joint count, Change from Baseline, Mean ± SD ([1]; 8 mg/kg MRA, with MTX or MTX placebo, Week 16): −8.4 ± 4.6
linear dose-relationship of reduction in swollen joint count ([1]; 2, 4, 8 mg/kg MRA groups, monotherapy p<0.001, combination p=0.004): statistically significant linear dose-relationship
serious adverse events of which causal relationship could not be denied: hypersensitivity ([4]; 2 mg/kg MRA group): four patients of hypersensitivity
serious adverse events of which causal relationship could not be denied: hypersensitivity ([4]; 4 mg/kg MRA group): one patient of hypersensitivity
Atherogenic Index ([4]; MRA groups): no overall change
laboratory data relating to lipids (total cholesterol, HDL cholesterol and triglyceride) ([4]; MRA groups): increase
number of patients experiencing an infusion reaction (adverse event within 24 hours of study drug administration) ([4]; across treatment groups): possible inverse dose-response
ALT and AST levels (hepatic functions) ([4]; equivalent to elevations observed in other patients with rheumatoid arthritis): elevation
CRP and ESR (parameters for disease activity) ([4]; in a dose dependent manner): decreases of CRP and ESR
hemoglobin (parameter for disease activity) ([4]; in a dose dependent manner): elevation of hemoglobin
neutrophil count ([4]; in some patients): Slight transient decrease
safety ([4]; in vivo): confirmed
ACR 20 [2, 6]: 30.8%
ACR 50 [2, 6]: 5.8%
ACR 70 [2, 6]: 1.9%
ACR 20 [2, 7]: 61.1%
ACR 50 [2, 7]: 27.8%
ACR 70 [2, 7]: 5.6%
ACR 20 [2, 8]: 62.7%
ACR 50 [2, 8]: 41.2%
ACR 70 [2, 8]: 15.7%
dose dependency in ACR 20 improvement rate ([2]; 2, 4, 8 mg/kg MRA alone groups): statistically significant dose dependency
dose dependent response for ACR50 and ACR70 improvement rate ([2]; 2, 4, 8 mg/kg MRA, alone and MTX-combined groups): statistically significant dose dependent response
dose-response (overall result) ([2]; in vivo): clear dose-response
effectiveness to treat patients with rheumatoid arthritis ([2]; in vivo): confirmed
